# Experimental data: patent US11679123B2, “N-acylated hyaluronic acid for hyperuricemia and gouty arthritis” (Queen's University at Kingston, priority 2018, dated 2023)
# What was measured:
# [1] = tested on: rats with MSU-induced gouty arthritis; assay: Dose screening on MSU crystals-induced acute gout in rats: ankle swelling ratio; format: in vivo, Wistar rats; settings: n=6, COL 0.3 mg/kg, at 4 h only, P<0.05
# Description: (§1) 48 male Wistar rats (8 weeks: 180-200 g), purchased from Yisi Experimental Animal Technology Company Ltd, Jilin, China (SCXK (Ji)-2016-0003), were housed in plastic cages and maintained on a 12-h light/12-h dark cycle (lights on 7:00-19:00 h) under standard laboratory conditions of 55% relative humidity and 23° C.±1° C. They were given standard chow and tap water ad libitum. All experimental procedures were approved by the Animal Ethics Committee of Jilin University (Reference NO. 201605).
# An experimental model of MSU-induced gouty arthritis was used in order to evaluate the anti-inflammatory activities of BHA similar as previous studies with some modifications. Rats were randomly divided into eight groups (n=6), including control group (NC), model group (MC), 0.3 mg/kg colchicine group (COL), 5 μg BHA group (5BHA), 10 μg BHA group (10BHA), 25 μg BHA group (25BHA), 50 μg BHA group (50BHA), 100 μg BHA group (100BHA). MSU crystals were suspended in 0.9% sterile saline (30 mg/mL) prior to use. Rats in the colchicine group were orally administered colchicine (0.3 mg/kg) for 8 days. At day 6, MSU solution (100 μL of 30 mg/mL) was intra-articular injected at the right ankles of all rats except the NC group m which were injected with saline solution. 5BHA, 10BHA, 25BHA, 50BHA and 100BHA groups received intra-articular injections of 5, 10, 25, 50, or 100 μg BHA along with MSU solution (100 μL of 30 mg/mL MSU solution contains 5, 10, 25, 50 or 100 μg BHA) were administered according to the stated BHA doses.
# The right ankle circumference of all rats at 0, 4, 12, 24 and 48 h after MSU injection was measured. The swelling ratio (%) was used for evaluating the gouty arthritis and calculated according to the change of the circumference following the formula: Swelling ratio (%)=(Ct−C0)/C0. Wherein, Ct represented the circumference at t hour and C0 represented the circumference at 0 hour.
# [2] = tested on: inflammatory cell infiltration in the synovium; assay: Histopathological assessment of ankle joint synovium (H&E) in MSU crystal-injected rats; format: in vivo, Wistar rats; settings: COL 0.3 mg/kg; MSU crystal-injected rats; H&E
# Description: In one study, a histopathological assessment was conducted of synovium in ankle joints of rats after H&E staining. The right ankles of […] were excised and fixed in 4% paraformaldehyde, and subsequently decalcified using 10% ethylenediaminetetraacetic acid. They were then dehydrated via processing in alcohol/xylene mixtures with different proportions and concentrations. The histological sections were stained with hematoxylin and eosin. The histopathological changes of the joint synovium were assessed for the degree of inflammatory cell infiltrate, by an experienced histopathologist. Microscopy at magnifications of 40×, 100×, 200× and 400× were investigated for typical areas for each of the five groups.
# The right ankles of rats were collected and fixed in 4% paraformaldehyde, and subsequently decalcified using 10% ethylenediaminetetraacetic acid. They were then dehydrated by processing in alcohol/xylene mixtures with different proportions and concentrations. The histological sections were later stained with hematoxylin and eosin for observation under an optical microscope (200×). The histopathological changes were analyzed with regard to deformaties of the joint synovium and infiltration by inflammatory cells into the ankle.
# [3] = tested on: rats with MSU-induced acute gout; assay: MSU crystal-induced acute gout in rats: ankle swelling ratio; format: in vivo, Wistar rats; settings: COL 0.3 mg/kg; at 12 h; P<0.05
# Description: Male Wistar rats (n=50, 8 weeks: 160-200 g) were purchased from Liaoning Changsheng Biotechnology Company Ltd, Jilin, China (SCXK (Liao)-2015-0001). These rats were housed in plastic cages and maintained on a 12-h light/12-h dark cycle (lights on 7:00-19:00 h) under standard laboratory conditions of 55% relative humidity and at 23° C.±1° C. They were given standard chow (Liaoning Changsheng Biotechnology Company Ltd, Jilin, China) and tap water ad libitum. All experimental procedures were approved by the Animal Ethics Committee of Jilin University (Reference NO. 201605).
# (§2) An experimental model of MSU-induced gouty arthritis was used in order to evaluate the anti-inflammatory activities of BHA. Rats were randomly divided into five groups (n=10), include a control group (NC), a model group (MC), a 0.3 mg/kg colchicine group (COL), a 10 μg BHA group (10BHA) and a 50 μg BHA group (50BHA). MSU crystals were suspended in 0.9% sterile saline (30 mg/mL) prior to use. The colchicine group rats were orally administrated colchicine (0.3 mg/kg) for 8 days, and all rats except for the control group were injected with 3 mg of MSU (Sigma, USA) at the 6th day into the right ankle synovial space 1 h after gavage feeding. Meanwhile a turbid sample of MSU mixed with 100 μg of BHA or 500 μg of BHA per mL of solution for 10BHA rats or 50BHA rats. At the 8th day, 1 h after the administration of the final agents, blood was sampled from the caudal veins of the rats and the right ankle joints of the rats were collected and fixed in 4% paraformaldehyde. Serum was separated and stored at −80° C. prior to analysis (FIG. 2A, E).
# The right ankle circumferences of all rats at 0, 4, 12, 24 and 48 h after MSU injection were measured. The swelling ratio (%) was used to evaluate the gouty arthritis and calculated according to the change of the circumference via the formula: Swelling ratio (%)=(Ct−C0)/C0, wherein, Ct represented the circumference at time t (in h) and C0 represented the circumference at 0 h.
# [4] = tested on: inflammation factors; assay: Serum inflammation factors by ELISA in rats with MSU-induced acute gout; format: in vivo, Wistar rats
# Description: as §2
# The serum levels of interleukin-1α (IL-1α, 41734), IL-1β (43360), interleukin-6 (IL-6, 41731), interleukin-8 (IL-8, 41716), IL-10 (41736), interleukin-16 (IL-16, 41628), C—X—C motif chemokine 10 (CXCL10, 41570), monocyte chemoattractant protein 1 (MCP-1, 41640), macrophage inflammatory protein 1α (MIP-1α, 41645), interferon gamma (IFN-γ, 41739), TNF-α (41721), tumor necrosis factor-β (TNF-β, 41673), nuclear factor κ-light-chain-enhancer of activated B cells (NF-κB, 43358), 6-keto-prostaglandin F-1α (6-Keto-PGF1α, 41809) and prostaglandin E2 (PGE2, 41609) in rats were determined by the ELISA method using related Elisa Kits (Yuanye Bio-Technology Co. Ltd, Shanghai, China) according to the manufacturer's instructions.
# [5] = tested on: xanthine oxidase (XO); assay: XO levels in serum and liver of hyperuricemic mice; format: in vivo, Balb/C mice; settings: AL 20 mg/kg; P<0.05
# Description: (§3) Due to the presence of uricase in mice, a hyperuricemic mouse model was established by using uricase inhibitor and large amounts of purine. Mice were randomly divided into five groups (n=10), including the control group (NC), model group (MC), 20 mg/kg of AL (Shimao Tianjie Pharmaceutical Co. Ltd, Jiangsu, China) group, 10 μg BHA group (10BHA) and 50 μg BHA group (50BHA). Oral administration of AL and intraperitoneal injection of BHA were administered according to the required dose, and all mice were gavage fed 20 g/kg yeast extract powder 12 h prior to the administration of AL and BHA except for NC mice for 8 days. From the 6th to 8th day, 1-h prior to AL and BHA administration, 300 mg/kg of OXO (Sigma, USA) was intraperitoneally injected to all of the mice except those in the control group. At 1 h after the final drug administration, blood was sampled from caudal veins of the mice, serum was separated and their livers were quickly collected (FIG. 3A, E). All samples were stored at −80° C. until assay measurements were performed.
# (§4) The serum UA concentrations and XO levels in the serum and liver were determined with a standard diagnostic kit (MAK077, MAK078 Sigma, USA) according to the manufacturer's instructions.
# [6] = tested on: factors related to oxidative stress; assay: Factors related to oxidative stress in serum and liver of hyperuricemia mice (ELISA); format: in vivo, Balb/C mice
# Description: as §3
# (§5) The levels of reactive oxygen species (ROS, 43355), malondialdehyde (MDA, 43124) glutathione peroxidase (GSH-Px, 43390), superoxide dismutase (SOD, 43125), catalase (CAT, 43356), creatinine (Cr, 43353) and blood urea nitrogen (BUN, 43352) in the serum and livers of mice were determined using ELISA Kits (Yuanye Bio-Technology Co. Ltd, Shanghai, China) according to the manufacturer's instructions.
# [7] = tested on: creatinine (Cr) and blood urea nitrogen (BUN); assay: Cr and urea nitrogen in serum and liver of hyperuricemic mice (renal function); format: in vivo, Balb/C mice; settings: AL
# Description: as §3, §5
# [8] = tested on: hyperuricemic mice; assay: Serum UA in OXO- and yeast extract-induced hyperuricemic mice; format: in vivo, Balb/C mice; settings: 20 mg/kg AL oral, P<0.01
# Description: as §1, with “Male Balb/C mice (n=50, 8” for “48 male Wistar rats (8”, “18-22” for “180-200”, “(Ji)-2016-0003). These mice” for “(Ji)-2016-0003),”, “23±1°” for “23° C.±1°”, “feed” for “chow”
# Due to the presence of uricase in mice, a hyperuricemic mouse model was established by using uricase inhibitor and large amounts of purine. Mice were randomly divided into five groups (n=10), including the control group (NC), model group (MC), 20 mg/kg of AL (Shimao Tianjie Pharmaceutical Co. Ltd, Jiangsu, China) group, 10 μg BHA group (10BHA) and 50 μg BHA group (50BHA). Oral administration of AL and intraperitoneal injection of BHA were administered according to the required dose, and all mice were gavage fed 20 g/kg yeast extract powder 12 h prior to the administration of AL and BHA except for NC mice for 8 days. […]
# as §4
# [9] = serum, MSU-induced acute gout rats, COL 0.3 mg/kg oral 8 days, mean ± S.D., n=10
# [10] = hyperuricemia mice, AL 20 mg/kg oral, mean ± S.D., n=10
smiles,measurement,setting,value
"COc1cc2c(c(OC)c1OC)-c1ccc(OC)c(=O)cc1[C@@H](NC(C)=O)CC2 [COL, colchicine, reference compound]",swelling of the ankle compared to MSU treated group,[1],significantly suppressed swelling of the ankle
same,pathological changes (inflammatory cell infiltration) in synovium,[2],partially prevented the pathological changes
same,ankle swelling compared to the MSU treated group,[3],suppressed ankle swelling
same,decrease of serum MCP-1 compared to rats injected with MSU,"[4]; COL 0.3 mg/kg, P<0.05",9.93%
same,6-Keto-PGF1α,[4]; [9],266.3 ± 12.7
same,IFN-γ,[4]; [9],88.2 ± 35 pg/mL
same,IL-1α,[4]; [9],74.3 ± 12.6 pg/mL
same,IL-1β,[4]; [9],19.1 ± 1.2 pg/mL
same,IL-6,[4]; [9],74.7 ± 7.9 pg/mL
same,IL-8,[4]; [9],222.7 ± 11.5 pg/mL
same,IL-10,[4]; [9],11.5 ± 0.7 pg/mL
same,IL-16,[4]; [9],416.7 ± 16.1 pg/mL
same,IP-10,[4]; [9],153.5 ± 20.3 pg/mL
same,MCP-1,[4]; [9],311.5 ± 20.8 pg/mL
same,MIP-1α,[4]; [9],294.6 ± 21.5 pg/mL
same,NF-κB,[4]; [9],494.6 ± 132. pg/mL
same,PGE2,[4]; [9],207.7 ± 10^ pg/mL
same,TNF-α,[4]; [9],154.8 ± 8.5 pg/mL
same,TNF-β,[4]; [9],124.8 ± 10.5 pg/mL
"Oc1ncnc2[nH]ncc12 [AL, allopurinol, reference compound]",reduction of XO levels in the serum compared to untreated mice,[5],23.76%
same,suppression of MDA level in the liver,"[6]; AL, hyperuricemic mice, P<0.05",13.47%
same,suppression of MDA level in the serum,"[6]; AL, hyperuricemic mice, P<0.05",6.66%
same,suppression of ROS level in the liver,"[6]; AL, hyperuricemic mice, P<0.05",17.86%
same,suppression of ROS level in the serum,"[6]; AL, hyperuricemic mice, P<0.05",9.48%
same,Liver CAT,[6]; [10],12.9 ± 1.3 U/mg
same,Liver GSH-PX,[6]; [10],66.1 ± 7.2 U/mg
same,Liver MDA,[6]; [10],3.1 ± 0.2 nmol/mg
same,Liver ROS,[6]; [10],63.2 ± 6.2 U/mg
same,Liver SOD,[6]; [10],48.5 ± 3.4 U/mg
same,Serum CAT,[6]; [10],41.6 ± 5.6 U/mL
same,Serum GSH-PX,[6]; [10],231.8 ± 7.7 U/mL
same,Serum MDA,[6]; [10],10.2 ± 0.5 nmol/mL
same,Serum ROS,[6]; [10],240.9 ± 23.9 U/mL
same,Serum SOD,[6]; [10],159.2 ± 8 U/mL
same,lowering of Cr in the liver,[7]; P<0.01,15.28%
same,lowering of Cr in the serum,"[7]; hyperuricemic mice, P<0.05",11.52%
same,lowering of urea nitrogen in the liver,"[7]; hyperuricemic mice, P<0.05",25.25%
same,suppression of serum UA level,[8],46.38%
